Experimental data taken from paper PMC12528653, “Functional characterization of key enzymes involved in the biosynthesis of distinctive flavonoids and stilbenoids in Morus notabilis” (Horticulture Research, 2025).

Key:
Assay in all cases: HPLC product assay, relative activity vs wild type
Assay type in all cases: biochemical
[1] = biological target: T1, MnFLS (Morus notabilis, UniProt W9RQ78, K202V); details: 100 μM substrate; 2-oxoglutarate, ascorbate, FeSO4; Tris-HCl pH 7.0, 30°C, 1 h
T1 construct: gene L484_013110; full-length ORF (1008 bp, 335 aa) in pET32a, E. coli BL21(DE3), purified recombinant

[2] = biological target: T2, MnFLS (Morus notabilis, UniProt W9RQ78, T117I); details: 100 μM substrate; 2-oxoglutarate, ascorbate, FeSO4; Tris-HCl pH 7.0, 30°C, 1 h
T2 construct: gene L484_013110; full-length ORF (1008 bp, 335 aa) in pET32a, E. coli BL21(DE3), purified recombinant

[3] = biological target: T3, MnFLS (Morus notabilis, UniProt W9RQ78, T117S); details: 100 μM substrate; 2-oxoglutarate, ascorbate, FeSO4; Tris-HCl pH 7.0, 30°C, 1 h
T3 construct: gene L484_013110; full-length ORF (1008 bp, 335 aa) in pET32a, E. coli BL21(DE3), purified recombinant

[4] = biological target: T4, MnFLS (Morus notabilis, UniProt W9RQ78, L224M); details: 100 μM substrate; 2-oxoglutarate, ascorbate, FeSO4; Tris-HCl pH 7.0, 30°C, 1 h; wild-type residue also printed as Met224
T4 construct: gene L484_013110; full-length ORF (1008 bp, 335 aa) in pET32a, E. coli BL21(DE3), purified recombinant
T4 sequence (W9RQ78 entry or part of it L224M): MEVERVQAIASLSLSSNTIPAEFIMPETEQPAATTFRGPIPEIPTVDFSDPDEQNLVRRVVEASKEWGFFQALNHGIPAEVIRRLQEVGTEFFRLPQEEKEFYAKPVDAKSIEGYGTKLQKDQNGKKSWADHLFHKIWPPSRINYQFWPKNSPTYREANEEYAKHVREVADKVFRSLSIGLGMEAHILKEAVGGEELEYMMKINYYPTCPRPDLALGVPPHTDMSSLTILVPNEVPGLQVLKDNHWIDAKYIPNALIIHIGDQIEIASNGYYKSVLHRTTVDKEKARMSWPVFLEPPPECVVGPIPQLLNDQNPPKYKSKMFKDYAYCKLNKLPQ

T1 sequence (W9RQ78 entry or part of it K202V): as the sequence (W9RQ78 entry or part of it L224M) above, with K202V, M224L counted along it
T3 sequence (W9RQ78 entry or part of it T117S): as the sequence (W9RQ78 entry or part of it L224M) above, with T117S, M224L counted along it
T2 sequence (W9RQ78 entry or part of it T117I): as the sequence (W9RQ78 entry or part of it L224M) above, with T117I, M224L counted along it

SMILES | HPLC product assay, relative activity vs wild type [1] | HPLC product assay, relative activity vs wild type [2] | HPLC product assay, relative activity vs wild type [3] | HPLC product assay, relative activity vs wild type [4]
O=C1c2c(O)cc(O)cc2O[C@H](c2ccc(O)cc2)[C@H]1O [dihydrokaempferol] | the mutant K202V suffered an almost complete loss of enzymatic function | replacing the Thr117 with Ile led to reduced activity | T117S resulted in significant enhancement of activity for both naringenin and dihydrokaempferol as substrates | The variant L224M facilitated the conversion of dihydrokaempferol to kaempferol
O=C1C[C@@H](c2ccc(O)cc2)Oc2cc(O)cc(O)c21 [naringenin] | the mutant K202V suffered an almost complete loss of enzymatic function | replacing the Thr117 with Ile led to reduced activity | T117S resulted in significant enhancement of activity for both naringenin and dihydrokaempferol as substrates | promoted an increased synthesis of dihydrokaempferol and kaempferol from naringenin
